# Entries after “also recorded” stand apart in the source; their conditions may differ.
# Experiments:
# Type in all cases: cell-based
# [1] = target: T1, human parathyroid cell calcium receptor (Homo sapiens, UniProt P41180); assay: Cl^- current in Xenopus oocytes expressing cloned human parathyroid calcium receptor; settings: for Cl^- current: 0.3 mM extracellular Ca^2+, NPS 019 3 to 30 μM
# T1 construct: cRNA injected in Xenopus oocytes
# T1 sequence (P41180 20-1078 R990G/E1011Q): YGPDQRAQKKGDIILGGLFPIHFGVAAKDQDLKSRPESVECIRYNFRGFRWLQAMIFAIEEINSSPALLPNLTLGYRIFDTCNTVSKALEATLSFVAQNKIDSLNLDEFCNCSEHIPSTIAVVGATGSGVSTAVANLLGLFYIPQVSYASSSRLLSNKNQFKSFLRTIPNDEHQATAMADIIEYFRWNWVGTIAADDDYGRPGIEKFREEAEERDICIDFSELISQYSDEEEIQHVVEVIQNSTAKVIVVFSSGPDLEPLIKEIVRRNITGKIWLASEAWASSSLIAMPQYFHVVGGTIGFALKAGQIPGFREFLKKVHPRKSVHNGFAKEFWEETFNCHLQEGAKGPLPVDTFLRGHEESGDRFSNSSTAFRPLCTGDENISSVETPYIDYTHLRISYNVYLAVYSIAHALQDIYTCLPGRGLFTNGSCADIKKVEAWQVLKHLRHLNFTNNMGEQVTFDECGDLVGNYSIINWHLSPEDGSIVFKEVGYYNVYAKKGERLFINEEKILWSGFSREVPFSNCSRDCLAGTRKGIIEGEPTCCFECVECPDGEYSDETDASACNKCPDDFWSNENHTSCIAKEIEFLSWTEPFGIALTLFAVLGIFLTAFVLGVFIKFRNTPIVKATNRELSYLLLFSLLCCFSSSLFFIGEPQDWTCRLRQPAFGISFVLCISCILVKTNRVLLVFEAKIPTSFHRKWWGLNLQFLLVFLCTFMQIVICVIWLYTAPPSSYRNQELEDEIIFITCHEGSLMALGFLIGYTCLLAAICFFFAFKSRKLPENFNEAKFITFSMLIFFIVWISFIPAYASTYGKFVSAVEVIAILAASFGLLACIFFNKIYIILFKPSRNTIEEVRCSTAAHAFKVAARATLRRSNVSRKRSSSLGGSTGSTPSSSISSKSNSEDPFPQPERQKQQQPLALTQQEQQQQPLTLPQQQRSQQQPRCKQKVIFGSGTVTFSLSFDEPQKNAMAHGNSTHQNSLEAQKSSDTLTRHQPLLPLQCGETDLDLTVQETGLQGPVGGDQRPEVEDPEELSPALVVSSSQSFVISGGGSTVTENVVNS
# Protocol: Representative cDNA inserts for both size classes were subcloned into the plasmid vector pBluescript SK. Linearization followed by in vitro transcription using T7 RNA polymerase produced cRNA transcripts. The cRNA transcripts were injected into Xenopus oocytes (150 ng/μl RNA; 50 nl/oocyte) for functional analysis. Following incubation periods of 2-4 days, the oocytes were assayed for the presence of functional calcium receptors. Both clone types gave rise to functional calcium receptors as assessed by the stimulation of calcium-activated chloride currents upon addition of appropriate calcium receptor agonists. […] Thus, both clones encode a functional, human parathyroid cell calcium receptor.
# Xenopus oocytes were injected with pHuPCaR 5.2, the 5.2 Kb cDNA encoding a parathyroid cell calcium receptor derived from a human parathyroid cell adenoma. (See Example 27.) After two to three days, Cl^- currents were measured in the oocytes using a two-electrode voltage clamp.
# [2] = target: T2, parathyroid cell calcium receptor (Bos taurus, UniProt P35384); assay: cell-based
# T2 sequence (P35384 21-1085 limits assumed): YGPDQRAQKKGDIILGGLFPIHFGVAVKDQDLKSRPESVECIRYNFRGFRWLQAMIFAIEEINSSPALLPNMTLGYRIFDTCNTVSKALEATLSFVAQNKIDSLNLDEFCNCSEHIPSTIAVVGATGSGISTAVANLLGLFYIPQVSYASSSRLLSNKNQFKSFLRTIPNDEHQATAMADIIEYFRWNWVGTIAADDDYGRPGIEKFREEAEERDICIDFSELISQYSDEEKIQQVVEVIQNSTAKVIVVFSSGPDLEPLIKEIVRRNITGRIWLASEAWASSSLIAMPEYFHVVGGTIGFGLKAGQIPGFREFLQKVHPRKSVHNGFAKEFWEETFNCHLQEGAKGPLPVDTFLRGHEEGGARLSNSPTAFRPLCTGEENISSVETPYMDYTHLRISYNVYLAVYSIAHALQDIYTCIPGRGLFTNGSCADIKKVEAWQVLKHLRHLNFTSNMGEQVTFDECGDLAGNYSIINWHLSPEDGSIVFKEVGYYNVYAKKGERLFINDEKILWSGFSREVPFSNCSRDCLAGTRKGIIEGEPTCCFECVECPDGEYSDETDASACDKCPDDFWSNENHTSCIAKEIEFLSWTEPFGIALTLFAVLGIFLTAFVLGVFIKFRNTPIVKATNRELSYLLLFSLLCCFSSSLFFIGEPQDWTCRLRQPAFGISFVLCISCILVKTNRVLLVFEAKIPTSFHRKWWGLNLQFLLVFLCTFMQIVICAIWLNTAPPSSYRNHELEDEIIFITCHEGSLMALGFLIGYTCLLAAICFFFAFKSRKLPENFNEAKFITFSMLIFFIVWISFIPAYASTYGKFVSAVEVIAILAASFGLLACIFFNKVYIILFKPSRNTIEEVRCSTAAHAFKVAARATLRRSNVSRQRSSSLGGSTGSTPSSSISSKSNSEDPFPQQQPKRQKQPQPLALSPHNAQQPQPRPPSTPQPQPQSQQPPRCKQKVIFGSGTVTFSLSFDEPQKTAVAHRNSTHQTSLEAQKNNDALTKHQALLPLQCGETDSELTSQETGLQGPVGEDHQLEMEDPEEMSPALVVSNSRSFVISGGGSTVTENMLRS
# Protocol: For example,.bovine parathyroid cells loaded with fura-2 are initially suspended in buffer containing 0.5 mM CaCl2. A test substance is added to the cuvette in a small volume (5-15 μl) and changes in the fluorescence signal are measured. Cumulative increases in the concentration of the test substance are made in the cuvette until some predetermined concentration is achieved or no further changes in fluorescence are noted.
# This section describes procedures used to obtain and treat parathyroid cells from calves and humans. […] Human parathyroid glands, were obtained from patients undergoing surgical removal of parathyroid tissue for primary or uremic hyperparathyroidism (uremic HPT), and were treated similarly to bovine tissue.
# Glands were trimmed of excess fat and connective tissue and then minced with fine scissors into cubes approximately 2-3 mm on a side. Dissociated parathyroid cells were prepared by collagenase digestion and then purified by centrifugation in Percoll buffer. The resultant parathyroid cell preparation was essentially devoid of red blood cells, adipocytes, and capillary tissue as assessed by phase contrast microscopy and Sudan black B staining. Dissociated and purified parathyroid cells were present as small clusters containing 5 to 20 cells.
# The cells were then transferred to plastic flasks (75 or 150 cm^2 ; Falcon) and incubated overnight at 37° C. in a humid atmosphere of 5% CO2. No serum is added to these overnight cultures, since its presence allows the cells to attach to the plastic, undergo proliferation, and dedifferentiate. Cells cultured under the above conditions were readily removed from the flasks by decanting, and show the same viability as freshly prepared cells.
# The cells were then pelleted, resuspended in the same buffer, but lacking the ester, and incubated a further 15 minutes at 37° C. The cells were subsequently washed twice with PCB containing 0.5 mM CaCl2 and 0.5% BSA and maintained at room temperature (about 20° C.). Immediately before use, the cells were diluted five-fold with prewarmed 0.5mM CaCl2 -PCB to obtain a final BSA concentration of 0.1%. The concentration of cells in the cuvette used for fluorescence recording was 1-2×10^6 /ml.
# The fluorescence of indicator-loaded cells was measured at 37° C. in a spectrofluorimeter (Biomedical Instrumentation Group, University of Pennsylvania, Philadelphia, Pa.) equipped with a thermostated cuvette holder and magnetic stirrer using excitation and emission wavelengths of 340 and 510 nm, respectively. […] Leakage of dye is dependent on temperature and most occurs within the first 2 minutes after warming the cells in the cuvette. Dye leakage increases only very slowly thereafter. To correct the calibration for dye leakage, cells were placed in the cuvette and stirred at 37° C. for 2-3 minutes. The cell suspension was then removed, the cells pelleted, and the supernatant returned to a clean cuvette. […] This estimate was subtracted from the apparent Fmin.
# Dissociated bovine parathyroid cells were purified on gradients of Percoll and cultured overnight in serum-free medium. […] That is,
# [3] = test system: osteoclast calcium receptor; assay: [Ca^2+]i (indo-1) in rat osteoclasts
# [4] = target: T3, bovine parathyroid cell calcium receptor (Bos taurus, UniProt P35384); assay: Cl^- current in Xenopus oocytes expressing BoPCaR 1
# T3 construct: expressed in transfected cells; host or cells: Xenopus laevis oocytes injected with cRNA from BoPCaR 1
# T3 sequence (P35384 21-1085 limits assumed): T2 sequence (P35384 21-1085 limits assumed)
# Protocol: These responses are mediated by the following series of biochemical events:
# Xenopus oocytes were injected with BoPCaR 1, the 5.3 Kb cDNA encoding a bovine parathyroid cell calcium receptor as described in Example 25. After two to three days, Cl^- currents were examined in the oocytes using a two-electrode voltage clamp.
# Xenopus oocytes were injected with BoPCaR 1 as described in Example 25. After two to three days, Cl^- currents were examined in the oocytes using two electrode voltage clamp.
SMILES,Cl^- current response in absence of extracellular Ca^2+ [1],Cl^- current [1],"EC50 ([2]; Table 6, bovine parathyroid cells, read-out: EC50 PARATHYROID)","EC50 ([3]; Table 6, rat osteoclasts)",Cl^- current response in absence of extracellular Ca^2+ [4],Cl^- current ([4]; 1 mM extracellular Ca^2+),activation of oocyte-expressed human receptor ([1]; pHuPCaR 5.2 and 4.0),"[Ca^2+]i response in Ca^2+-free buffer ([2]; no extracellular Ca^2+, NPS R-467 30 μM)",effect on concentration-response curve of NPS 019 [4],effect on responses to submaximal extracellular Ca^2+ [4],effect on osteoclast response to extracellular Ca^2+ [3],increase in [Ca^2+]i in osteoclasts [3],increase in [Ca^2+]i in osteoclasts or effect on basal ([3]; neomycin B 5 mM),"inward currents ([4]; Ca^2+ 5 mM, Mg^2+ 1.0-20 mM, Gd^3+ 600 μM, neomycin 200 μM)"
"NCCCNCCCCNCCCNCCCNCCCNC(=O)Cc1c[nH]c2ccccc12 [NPS 019, reference compound]",persisted,evoked increases in the Cl^- current,40 µM,> 300 µM,persisted,oscillatory increases in the Cl^- current,,,,,,,,
"COc1cccc([C@@H](C)NCCCc2ccccc2Cl)c1 [NPS R-568, (R)-(+)-N-[3-(2-chlorophenyl)propyl]-α-methyl-3-methoxybenzylamine]",abolished,evoked increases in the Cl^- current,,,abolished,,activated the oocyte-expressed receptor at about the same concentrations,fails to evoke increases in [Ca^2+ ]i,shifts the concentration-response curve of NPS 019 to the left,potentiated the responses,,,,
NC[C@@H]1O[C@H](O[C@H]2[C@@H](O)[C@H](O[C@@H]3[C@@H](O)[C@H](N)C[C@H](N)[C@H]3O[C@H]3O[C@H](CN)[C@@H](O)[C@H](O)[C@H]3N)O[C@@H]2CO)[C@H](N)[C@@H](O)[C@@H]1O [Neomycin],,,,,,,,,,,did not block the increase,failed to evoke any increase in [Ca^2+ ]i; also recorded: Neither neomycin (10 mM) nor spermine (10 or 20 mM) caused increases,without effect on basal [Ca^2+ ]i,large inward currents

# From US5688938A, “Calcium receptor-active molecules” (priority 1995, dated 1997)
